Data: PubChem BioAssay AID292 (DTP/NCI, 2004)
Where “and” joins values, the source holds several entries; their conditions need not be identical. Equal entries are not always repeated. Toxic doses and inconclusive results are not listed.

System: B6C3F1 mice, ip Sarcoma M5076, median survival T/C
Assay: NCI In Vivo Anticancer Drug Screen. Data for tumor model Sarcoma M5076 (intraperitoneal) in B6C3F1 mice
Conditions: endpoint: median survival time, schedule: Q04DX004 (ip), higher = longer survival
Procedure, shortened: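 Transplantable tumour in mice; compound-treated vs vehicle-treated groups. Read-out: survival. Value = treated/control ratio.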

[1] = dose: 12.5 mg/kg/injection, vehicle: water
[2] = dose: 25.0 mg/kg/injection, vehicle: water
[3] = dose: 50.0 mg/kg/injection, vehicle: water
[4] = dose: 100.0 mg/kg/injection, vehicle: water
[5] = dose: 37.5 mg/kg/injection, vehicle: saline with Tween-80
[6] = dose: 75.0 mg/kg/injection, vehicle: saline with Tween-80
[7] = dose: 150.0 mg/kg/injection, vehicle: saline with Tween-80
[8] = dose: 300.0 mg/kg/injection, vehicle: saline with Tween-80
[9] = dose: 600.0 mg/kg/injection, vehicle: saline with Tween-80
[10] = dose: 50.0 mg/kg/injection, vehicle: saline with Tween-80
[11] = dose: 100.0 mg/kg/injection, vehicle: saline with Tween-80
[12] = dose: 200.0 mg/kg/injection, vehicle: saline with Tween-80
[13] = dose: 400.0 mg/kg/injection, vehicle: saline with Tween-80
[14] = dose: 50.0 mg/kg/injection, vehicle: Klucel (hydroxypropylcellulose) (HPC)
[15] = dose: 100.0 mg/kg/injection, vehicle: Klucel (hydroxypropylcellulose) (HPC)
[16] = dose: 200.0 mg/kg/injection, vehicle: Klucel (hydroxypropylcellulose) (HPC)
[17] = dose: 400.0 mg/kg/injection, vehicle: Klucel (hydroxypropylcellulose) (HPC)
[18] = dose: 31.25 mg/kg/injection, vehicle: saline with Tween-80
[19] = dose: 62.5 mg/kg/injection, vehicle: saline with Tween-80
[20] = dose: 125.0 mg/kg/injection, vehicle: saline with Tween-80
[21] = dose: 250.0 mg/kg/injection, vehicle: saline with Tween-80

Nc1nc(C=O)nc2c1ncn2C1OC(CO)C(O)C1O (centres undefined)
T/C [1]: 104 % of control
T/C [2]: 104 % of control
T/C [3]: 106 % of control
T/C [4]: 109 % of control
T/C (dose: 200.0 mg/kg/injection, vehicle: water): 123 % of control

CC[n+]1c([S-])nn(C)c1-c1cnccn1
T/C [5]: 103 % of control
T/C [6]: 107 % of control
T/C [7]: 96 % of control
T/C [8]: 112 % of control
T/C [9]: 95 % of control

COc1ccc2c(n1)Sc1nc3ccccc3nc1N2
T/C [5]: 92 % of control
T/C [6]: 98 % of control
T/C [7]: 87 % of control

O=C(Nc1ccccc1)c1c(O)[nH]c(=O)[nH]c1=O
T/C (dose: 25.0 mg/kg/injection, vehicle: saline with Tween-80): 102 % of control and 108 % of control
T/C [10]: 98 % of control and 106 % of control and 110 % of control
T/C [11]: 96 % of control and 111 % of control and 112 % of control
T/C [12]: 109 % of control and 111 % of control and 119 % of control
T/C [13]: 114 % of control

C/C(=N\NC(=S)N1CCN(c2ccccn2)CC1)c1ccccn1
T/C (dose: 12.5 mg/kg/injection, vehicle: Klucel (hydroxypropylcellulose) (HPC)): 98 % of control
T/C (dose: 25.0 mg/kg/injection, vehicle: Klucel (hydroxypropylcellulose) (HPC)): 103 % of control
T/C [14]: 93 % of control

NC(=S)N/N=C/c1ncccc1O
T/C (dose: 50.0 mg/kg/injection, vehicle: suspension in saline): 103 % of control
T/C (dose: 100.0 mg/kg/injection, vehicle: suspension in saline): 101 % of control
T/C (dose: 200.0 mg/kg/injection, vehicle: suspension in saline): 101 % of control
T/C (dose: 400.0 mg/kg/injection, vehicle: suspension in saline): 102 % of control

CCN(Cc1ccc(Cl)c(Cl)c1)c1ccc2nc(N)nc(N)c2c1C
T/C (dose: 6.25 mg/kg/injection, vehicle: saline): 107 % of control
T/C (dose: 12.5 mg/kg/injection, vehicle: saline): 107 % of control and 122 % of control
T/C (dose: 25.0 mg/kg/injection, vehicle: saline): 118 % of control (2×) and 123 % of control
T/C (dose: 50.0 mg/kg/injection, vehicle: saline): 110 % of control

Cc1cc(C)cc(N(C2=NCCS2)C2=NCCS2)c1
T/C [14]: 100 % of control
T/C [15]: 96 % of control
T/C [16]: 92 % of control
T/C [17]: 99 % of control

Clc1cccc2[nH]c(-c3ccncc3)nc12
T/C [5]: 104 % of control
T/C [6]: 111 % of control
T/C [7]: 98 % of control
T/C [8]: 105 % of control
T/C [9]: 100 % of control

CC(/C=C/C1OC(=O)C=CC1C)=C\C(C)C/C=C/C(C)=C/C(C)C(=O)C(C)C(O)C(C)C/C(C)=C/C(=O)O (centres undefined)
T/C (dose: 25.0 micrograms/kg/injection, vehicle: saline + alcohol): 118 % of control
T/C (dose: 50.0 micrograms/kg/injection, vehicle: saline + alcohol): 150 % of control
T/C (dose: 100.0 micrograms/kg/injection, vehicle: saline + alcohol): 123 % of control
T/C (dose: 400.0 micrograms/kg/injection, vehicle: saline + alcohol): 177 % of control

COc1cc(C(C)c2cc3c(cc2OCCO)OCO3)cc(OC)c1OC (centres undefined)
T/C [11]: 108 % of control
T/C [12]: 104 % of control

CC(C)NC(=O)OCc1c(COC(=O)NC(C)C)c(-c2ccc(Cl)c(Cl)c2)n2c1CCC2
T/C [6]: 161 % of control
T/C (dose: 108.0 mg/kg/injection, vehicle: saline with Tween-80): 188 % of control
T/C [7]: 186 % of control
T/C (dose: 180.0 mg/kg/injection, vehicle: saline with Tween-80): 114 % of control
T/C [9]: 152 % of control

NC(=O)C(N)C(F)c1ccccc1 (centres undefined)
T/C [18]: 100 % of control
T/C [19]: 116 % of control
T/C [20]: 93 % of control
T/C [21]: 96 % of control

Nc1ccn(C2CC(N)C(CO)O2)c(=O)n1 (centres undefined)
T/C [2]: 109 % of control
T/C [3]: 118 % of control and 120 % of control
T/C [4]: 121 % of control and 124 % of control
T/C (dose: 800.0 mg/kg/injection, vehicle: water): 163 % of control

CCN(CC)Cc1c(OC)ccc2[nH]c3c4ccc(Cl)cc4ncc3c12
T/C (dose: 15.63 mg/kg/injection, vehicle: saline with Tween-80): 104 % of control
T/C [18]: 106 % of control
T/C [19]: 105 % of control
T/C [20]: 101 % of control
T/C [21]: 100 % of control

Clc1ccc(OCC(Cn2ccnc2)c2ccc(Cl)cc2)cc1 (centres undefined)
T/C (dose: 18.75 mg/kg/injection, vehicle: saline with Tween-80): 115 % of control
T/C [5]: 102 % of control
T/C [6]: 101 % of control

COc1ccccc1C1C(C#N)C(=O)NC(=O)C1C#N (centres undefined)
T/C [14]: 100 % of control
T/C [15]: 100 % of control
T/C [16]: 95 % of control
T/C [17]: 102 % of control

C/C(=N\Nc1cc(C)nc2ccc(C)cc12)c1cn(C)n(-c2ccccc2)c1=O
T/C (dose: 31.25 mg/kg/injection, vehicle: Klucel (hydroxypropylcellulose) (HPC)): 86 % of control

Cn1cc(NC(=O)c2cc(NC(=O)c3cc(NC=O)cn3C)cn2C)cc1C(=O)NCCC(=N)N
T/C [1]: 108 % of control
T/C [2]: 102 % of control
T/C [3]: 105 % of control
T/C [4]: 99 % of control

O=C(O)[C@H](Cc1ccccc1)N1C(=O)c2ccccc2C1=O
T/C (dose: 62.5 mg/kg/injection, vehicle: DMSO): 92 % of control
T/C (dose: 125.0 mg/kg/injection, vehicle: DMSO): 110 % of control
T/C (dose: 250.0 mg/kg/injection, vehicle: DMSO): 100 % of control

Nc1ccccc1Sc1cc(Cl)nnc1Cl
T/C [10]: 97 % of control
T/C [11]: 98 % of control
T/C [12]: 102 % of control
T/C [13]: 88 % of control

[Cl][Hg][Cl]
T/C (dose: 0.38 mg/kg/injection, vehicle: saline): 93 % of control
T/C (dose: 0.39 mg/kg/injection, vehicle: saline): 96 % of control
T/C (dose: 0.75 mg/kg/injection, vehicle: saline): 96 % of control
T/C (dose: 0.78 mg/kg/injection, vehicle: saline): 86 % of control
T/C (dose: 1.5 mg/kg/injection, vehicle: saline): 96 % of control
T/C (dose: 1.56 mg/kg/injection, vehicle: saline): 87 % of control
T/C (dose: 3.0 mg/kg/injection, vehicle: saline): 93 % of control
T/C (dose: 3.12 mg/kg/injection, vehicle: saline): 87 % of control

CCCCCCC1C(C#N)C(=O)NC(=O)C1C#N (centres undefined)
T/C (dose: 40.63 mg/kg/injection, vehicle: Klucel (hydroxypropylcellulose) (HPC)): 95 % of control
T/C (dose: 81.25 mg/kg/injection, vehicle: Klucel (hydroxypropylcellulose) (HPC)): 94 % of control
T/C (dose: 162.5 mg/kg/injection, vehicle: Klucel (hydroxypropylcellulose) (HPC)): 101 % of control
T/C (dose: 325.0 mg/kg/injection, vehicle: Klucel (hydroxypropylcellulose) (HPC)): 92 % of control
T/C (dose: 650.0 mg/kg/injection, vehicle: Klucel (hydroxypropylcellulose) (HPC)): 87 % of control
